According to patent US12384754B2, “Cocrystals of (1R,3S)-3-(5-cyano-4-phenyl-1,3-thiazol-2-ylcarbamoyl)cyclopentane carboxylic acid” (PALOBIOFARMA, S.L., priority 2020, dated 2025):
Like-named read-outs stand apart in the source and are kept apart here.

Tests used:
[1] = pKa / ΔpKa of free acid and cocrystal forming compounds; assay type: physicochemical
Text: Cocrystals are distinguished from salts because unlike salts, the components that co-exist in the cocrystal lattice with a defined stoichiometry interact nonionically. […] If this criterion is met, the API-coformer entity should be classified as a cocrystal. (Regulatory Classification of Pharmaceutical Co-Crystals Guidance for Industry, February 2018, http://www.fda.gov/Drugs/GuidanceComplianceRegulatotyInformation/Guidances/default.htm).

[2] = Plasma pharmacokinetics / oral bioavailability after single IV and PO administration; assay type: in vivo; conditions: male SD rats; for F % (bioavailability): po 5 mg/Kg vs iv 1 mg/Kg
Description: The objective of this study was to investigate the plasma pharmacokinetics of differentes cocrystals obtained from (1R,3S)-3-(5-cyano-4-phenyl-1, 3-thiazol ylcarbamoyl) cyclopentane carboxylic acid, following a single intravenous (IV) and oral (PO) administration in male SD rats.
Animals were divided into two groups: Group 1 (IV: 1 mg/kg) and Group 2 (PO: 5 mg/kg). Animals in Group 1 and 2 were administered a solution of the different cocrystals of (1R,3S)-3-(5-cyano-4-phenyl-1,3-thiazol-2-ylcarbamoyl) cyclopentane carboxylic acid in normal saline. The blood samples were collected from set of three rats at each time point in labeled micro centrifuge tube containing K2EDTA solution as anticoagulant at Pre-dose, 0.083, 0.25, 0.5, 1, 2, 4, 8 and 24 hr (IV) and Pre-dose, 0.25, 0.5, 1, 2, 4, 6, 8 and 24 hr (PO). Plasma samples were separated by centrifugation of whole blood and stored below −70±10° C. until bioanalysis. All samples were processed for analysis by protein precipitation using acetonitrile and analyzed with fit-for-purpose LC-MS/MS method (LLOQ=1.00 ng/ml). Pharmacokinetic parameters were calculated using the non-compartmental analysis tool of Phoenix WinNonlin® (Version 6.3).

[3] = Comparative bioavailability assay in healthy volunteers; assay type: in vivo; conditions: for AUC0-t, MEAN ± SD / AUC0-t, geometric mean / AUC0-∞, MEAN ± SD / AUC0-∞, geometric mean / Cmax / Tmax / Cmax, MEAN ± SD / Cmax, geometric mean / tmax, median and range: single oral dose, Example 1 5 mg, Example 2 7.3 mg; for Cmax / Tmax: male, human, plasma, po, 5 mg; for Tmax: read-out: tmax, median and range
Description: Healthy volunteers in this study will be males 18 years of age or older in order to assess the comparative bioavailability of compound of Example 2 versus compound of Example 1, under fasting conditions and to investigate the effect of a high fat, high calorie meal. Compounds will be administered orally in single dose of Example 1 (5 mg) and Example 2 (7.3 mg). The study will have a randomized, open-label, four-fold crossover design.
In order to determine comparative bioavailability AUC0-t (AUC0-t: Area under the plasma concentration-time curve from time 0 h to the last measurable concentration) and Cmax (Cmax: Observed maximum plasma concentration (peak exposure)) will be determined after each administration.
16 volunteers were included in the study. […] Therefore, all the data were included in all pharmacokinetic measurements and calculations, without any adjustment.

[4] = Hygroscopicity study by DVS (Dynamic Vapour Sorption); assay type: physicochemical; conditions: for moisture content, 15% RH / moisture content, 35% RH / moisture content, 55% RH / moisture content, 75% RH: DVS, 25° C.; for variation in the moisture content: at 75% RH
Description: Hygroscopicity study. The hygroscopicity of cocrystals was determined by DVS (Dynamic Vapour Sorption) with a Q5000 TA instrument. This is a gravimetric technique that measures the amount of water absorbed or desorbed by a sample at different relative humidities (RH). At each RH level, the sample mass must be allowed to reach gravimetric equilibrium (or surpass the time limit) before progressing to the next humidity level. Sorption and desorption isotherms were performed at 25° C. over a range of 0-95% RH. The sample was not previously dried, but it was exposed to 0% RH until reaching a stable weight before starting the DVS cycle. This equilibration step allows the elimination of the possible adsorbed humidity from the atmosphere. The relative humidity (RH) was controlled by a mixture of wet and dry nitrogen stream. The RH was held constant until the equilibrium had been obtained (constant weight) or until the maximum time has been reached, before changing the RH to the next level.

[5] = Crystalline stability under accelerated storage conditions (40° C., 75±5 RH %), XRPD; assay type: physicochemical; conditions: for Stability, 1 week / Stability, 2 weeks / Stability, 3 weeks / Stability, 4 weeks: 40° C., 75±5 RH %, XRPD; for Stability under forced conditions (one week) and in 4-weeks stability assay: crystallinity, colour, aspect
Description: Crystalline stability study was performed under accelerated stability conditions (40° C., 75±5 RH %) for one week. A sample of each form stored on a XRPD silicon holder was exposed in a climatic chamber. It is worth noting that these conditions are very drastic because the high surface exposed to the storage conditions might favour possible crystalline conversion. The samples were periodically analysed by XRPD to observe possible transformation.
Additional crystalline stability study was performed under accelerated stability conditions (40° C., 75±5 RH %). Cocrystal samples were stored in an open vial and exposed in a climate chamber maintaining the conditions set with accuracy (40° C.-75% RH ±5 RH). These samples were analysed weekly for 1 month.
The stability of the cocrystalline forms of (1R,3S)-3-(5-cyano-4-phenyl-1,3-thiazol ylcarbamoyl) cyclopentane carboxylic acid were studied under accelerated storage conditions (40° C., 75±5 RH %) for one to four week. See results in Table 5.
After time exposure, cocrystals remained stable according to XRPD analysis. Amorphization or appearance of crystalline forms was not detected in the limit of detection of the analysis conditions.

[6] = Fed (high fat, high calorie meal)

F % (bioavailability) [2] [%] | AUClast ([2]; po, 5 mg/Kg) [ng·h/mL] | Cmax ([2]; po, 5 mg/Kg) [ng/mL] | moisture content, 15% RH [4] | moisture content, 35% RH [4] | moisture content, 55% RH [4] | moisture content, 75% RH [4] | variation in the moisture content [4] [%] | Stability, 1 week [5] | Stability, 2 weeks [5] | Stability, 3 weeks [5] | Stability, 4 weeks [5] | SMILES | Stability under forced conditions (one week) and in 4-weeks stability assay [5] | also measured
– | – | – | – | – | – | – | – | – | – | – | – | NC(N)=O [Urea, urea] | – | pKa conjugated base ([1]; cocrystal forming compound): Not basic
– | – | – | – | – | – | – | – | – | – | – | – | O=C(O)c1cc(O)ccc1O [Gentisic acid, 2,5-dihydroxybenzoic acid] | – | pKa conjugated base ([1]; cocrystal forming compound): Not basic
47 | 5200.71 | 2012 | 0.0168 | 0.1842 | 0.3008 | 0.4369 | 0.43 | – | – | – | – | N#Cc1sc(NC(=O)[C@H]2CC[C@@H](C(=O)O)C2)nc1-c1ccccc1 [Example 1, (1R,3S)-3-(5-cyano-4-phenyl-1,3-thiazol-2-ylcarbamoyl) cyclopentane carboxylic acid] | – | AUC0-t, MEAN ± SD ([3]; Fasting): 1155.0 ± 567.8 ng/mLxh; AUC0-t, geometric mean ([3]; Fasting): (1052.8) ng/mLxh; AUC0-∞, MEAN ± SD ([3]; Fasting): 1257.2 ± 661.9 ng/mLxh; AUC0-∞, geometric mean ([3]; Fasting): (1132.2) ng/mLxh; AUC0-t, MEAN ± SD [3, 6]: 588.1 ± 160.9 ng/mLxh; AUC0-t, geometric mean [3, 6]: (567.9) ng/mLxh; AUC0-∞, MEAN ± SD [3, 6]: 657.9 ± 191.4 ng/mLxh; AUC0-∞, geometric mean [3, 6]: (632.7) ng/mLxh; Cmax ([3]; Fasting, read-out: Cmax, MEAN ± SD): 187 ± 71.6 ng/mL; Cmax ([3]; Fasting, read-out: Cmax, geometric mean): 176 ng/mL; Tmax ([3]; Fasting): 2.5 h; Cmax ([3]; Fed (high fat, high calorie meal), read-out: Cmax, MEAN ± SD): 68 ng/mL; Cmax ([3]; Fed (high fat, high calorie meal), read-out: Cmax, geometric mean): 65.6 ng/mL; Tmax [3, 6]: 7 h; pKa ([1]; free acid, read-out: pKa): 4.3
100 | 16502.48 | 8642.28 | 0.0079 | 0.0175 | 0.0398 | 0.1035 | 0.10 | stable | stable | stable | stable | N#Cc1sc(NC(=O)[C@H]2CC[C@@H](C(=O)O)C2)nc1-c1ccccc1.O=C(O)c1cc(O)ccc1O [Example 2, cocrystal of (1R,3S)-3-(5-cyano-4-phenyl-1,3-thiazol-2-ylcarbamoyl) cyclopentane carboxylic acid and gentisic acid] | no crystallinity changes, colour or any other change in the aspect were observed | AUClast ([2]; iv, 1 mg/Kg): 3304.55 ng·h/mL; Clearance ([2]; iv, 1 mg/Kg): 5.03 mL/min/kg; AUC0-t, MEAN ± SD ([3]; Fasting): 1138.5 ± 451.1 ng/mLxh; AUC0-t, geometric mean ([3]; Fasting): (1071.4) ng/mLxh; AUC0-∞, MEAN ± SD ([3]; Fasting): 1216.5 ± 483.3 ng/mLxh; AUC0-∞, geometric mean ([3]; Fasting): (1141.7) ng/mLxh; Cmax, MEAN ± SD ([3]; Fasting): 173.7 ± 60.7 ng/mL; Cmax, geometric mean ([3]; Fasting): (165.8) ng/mL; tmax, median and range ([3]; Fasting): 2.25 (1.5-5.0) h; AUC0-t, MEAN ± SD [3, 6]: 599.1 ± 132.1 ng/mLxh; AUC0-t, geometric mean [3, 6]: (585.9) ng/mLxh; AUC0-∞, MEAN ± SD [3, 6]: 675.0 ± 158.8 ng/mLxh; AUC0-∞, geometric mean [3, 6]: (659.1) ng/mLxh; Cmax, MEAN ± SD [3, 6]: 73.6 ± 25.1 ng/mL; Cmax, geometric mean [3, 6]: (69.8) ng/mL; tmax, median and range [3, 6]: 7.0 (5.0-7.0) h; Cmax compared with Example 1 ([3]; administered after a high fat meal): slightly higher; Hygroscopicity compared with the free acid ([4]; usual storage conditions of drugs (<75% RH), up to 75% RH, listed as cocrystal with gentisic acid): less hygroscopic than free acid; Hygroscopicity compared with the free acid ([4]; usual storage conditions of drugs (<75% RH), up to 75% RH, listed as gentisic acid cocrystal): less hygroscopicity than the free acid
– | – | – | – | – | – | – | – | – | – | – | – | NC(=O)c1cccnc1 [Nicotinamide, 3-pyridinecarboxamide] | – | ΔpKa ([1]; between the free acid (pKa 4.3) and the cocrystal forming compound): 0.9; pKa ([1]; cocrystal forming compound, read-out: pKa conjugated base): 3.4
100 | 19238.03 | 10227.47 | 0.015 | 0.0339 | 0.0545 | 0.0895 | 0.08 | stable | stable | stable | stable | N#Cc1sc(NC(=O)[C@H]2CC[C@@H](C(=O)O)C2)nc1-c1ccccc1.NC(N)=O [Example 3, cocrystal of (1R,3S)-3-(5-cyano-4-phenyl-1,3-thiazol-2-ylcarbamoyl) cyclopentane carboxylic acid and urea] | no crystallinity changes, colour or any other change in the aspect were observed | AUClast ([2]; iv, 1 mg/Kg): 2714.55 ng·h/mL; Clearance ([2]; iv, 1 mg/Kg): 6.12 mL/min/kg; Hygroscopicity compared with the free acid ([4]; usual storage conditions of drugs (<75% RH), up to 75% RH, listed as cocrystal with urea): less hygroscopic than free acid; Hygroscopicity compared with the free acid ([4]; usual storage conditions of drugs (<75% RH), up to 75% RH, listed as urea cocrystal): less hygroscopicity than the free acid

SMILES | F % (bioavailability) [2] [%] | AUClast ([2]; po, 5 mg/Kg) [ng·h/mL] | Cmax ([2]; po, 5 mg/Kg) [ng/mL] | moisture content, 15% RH [4] | moisture content, 35% RH [4] | moisture content, 55% RH [4] | moisture content, 75% RH [4] | variation in the moisture content [4] [%] | Stability, 1 week [5] | Stability, 2 weeks [5] | Stability, 3 weeks [5] | Stability, 4 weeks [5] | Stability under forced conditions (one week) and in 4-weeks stability assay [5] | also measured
N#Cc1sc(NC(=O)[C@H]2CC[C@@H](C(=O)O)C2)nc1-c1ccccc1.NC(=O)c1cccnc1 [Example 4, cocrystal of (1R,3S)-3-(5-cyano-4-phenyl-1,3-thiazol-2-ylcarbamoyl) cyclopentane carboxylic acid and nicotinamide] | – | – | – | 0.029 | 0.066 | 0.165 | 0.4584 | – | stable | stable | stable | stable | no crystallinity changes, colour or any other change in the aspect were observed | Hygroscopicity compared with the free acid ([4]; range between 5-70% RH): less hygroscopicity than the free acid
